# Test results published in paper PMC5218480 (PLoS ONE, 2017).
# System: MV-4-11 cells
# Test: Gene expression microarray analysis (Affymetrix PrimeView) and GSEA
# Format: cell-based, human
# Design: RFU PODN (11730768_x_at) / Fold change /veh PODN (11730768_x_at) / RFU LINC00158 (11744669_a_at) / Fold change /veh LINC00158 (11744669_a_at) / RFU DUSP10 (11751237_a_at) / Fold change /veh DUSP10 (11751237_a_at) / RFU ID3 (11757404_x_at) / Fold change /veh ID3 (11757404_x_at) / RFU PLEKHG5 (11737974_s_at) / Fold change /veh PLEKHG5 (11737974_s_at) / RFU LRRC4B (11730491_at) / Fold change /veh LRRC4B (11730491_at) / RFU GIMAP4 (11747438_a_at) / Fold change /veh GIMAP4 (11747438_a_at) / RFU KRT8 (11758183_x_at) / Fold change /veh KRT8 (11758183_x_at) / RFU CNN1 (11734310_a_at) / Fold change /veh CNN1 (11734310_a_at) / RFU VPS37D (11726825_at) / Fold change /veh VPS37D (11726825_at) / RFU C10orf10 (11716522_x_at) / Fold change /veh C10orf10 (11716522_x_at) / RFU KIR2DL2 /// KIR2DL4 /// KIR2DL5A /// KIR2DL5B /// KIR2DS1 /// KIR2DS2 /// KIR2DS3 /// KIR2DS4 /// KIR3DL3 /// KIR3DL3 /// KIR3DS1 (11738374_at) / Fold change /veh KIR2DL2 /// KIR2DL4 /// KIR2DL5A /// KIR2DL5B /// KIR2DS1 /// KIR2DS2 /// KIR2DS3 /// KIR2DS4 /// KIR3DL3 /// KIR3DL3 /// KIR3DS1 (11738374_at) / RFU C1QL1 (11718748_at) / Fold change /veh C1QL1 (11718748_at) / RFU TMPRSS4 (11747572_a_at) / Fold change /veh TMPRSS4 (11747572_a_at) / RFU HAMP (11756126_x_at) / Fold change /veh HAMP (11756126_x_at) / RFU RNFT2 (11725882_a_at) / Fold change /veh RNFT2 (11725882_a_at) / RFU NR4A2 (11747474_a_at) / Fold change /veh NR4A2 (11747474_a_at) / RFU ABCC12 (11746883_a_at) / Fold change /veh ABCC12 (11746883_a_at) / RFU TMEM136 (11760407_x_at) / Fold change /veh TMEM136 (11760407_x_at) / RFU CLDN22 /// WWC2 (11732394_at) / Fold change /veh CLDN22 /// WWC2 (11732394_at) / RFU HLA-DPB1 (11760878_x_at) / Fold change /veh HLA-DPB1 (11760878_x_at) / RFU SPINT1 (11716480_a_at) / Fold change /veh SPINT1 (11716480_a_at) / RFU GAP43 (11754022_s_at) / Fold change /veh GAP43 (11754022_s_at) / RFU A4GNT (11735810_at) / Fold change /veh A4GNT (11735810_at) / RFU PRB3 (11715151_x_at) / Fold change /veh PRB3 (11715151_x_at) / RFU TUBB4B (11761932_at) / Fold change /veh TUBB4B (11761932_at) / RFU CAPN14 (11732068_a_at) / Fold change /veh CAPN14 (11732068_a_at) / RFU TMCC2 (11721928_a_at) / Fold change /veh TMCC2 (11721928_a_at) / RFU IRGQ (11745062_a_at) / Fold change /veh IRGQ (11745062_a_at) / RFU FAM174B (11720279_a_at) / Fold change /veh FAM174B (11720279_a_at) / RFU TMPRSS4 (11748680_a_at) / Fold change /veh TMPRSS4 (11748680_a_at) / RFU FAM212B (11763350_a_at) / Fold change /veh FAM212B (11763350_a_at) / RFU PLEKHG5 (11743358_a_at) / Fold change /veh PLEKHG5 (11743358_a_at) / RFU ZSCAN30 (11745921_a_at) / Fold change /veh ZSCAN30 (11745921_a_at) / RFU CMKLR1 (11741424_a_at) / Fold change /veh CMKLR1 (11741424_a_at) / RFU LOC101060620 /// MAPK8IP1 (11723275_at) / Fold change /veh LOC101060620 /// MAPK8IP1 (11723275_at) / RFU SPTSSB (11747773_x_at) / Fold change /veh SPTSSB (11747773_x_at) / RFU PRSS12 (11739890_at) / Fold change /veh PRSS12 (11739890_at) / RFU BIN1 (11741810_x_at) / Fold change /veh BIN1 (11741810_x_at) / RFU WNT11 (11732464_a_at) / Fold change /veh WNT11 (11732464_a_at) / RFU C10orf10 (11716521_a_at) / Fold change /veh C10orf10 (11716521_a_at) / RFU C5orf56 (11738089_at) / Fold change /veh C5orf56 (11738089_at) / RFU CYB561 (11721691_x_at) / Fold change /veh CYB561 (11721691_x_at) / RFU ANKRD19P (11752326_a_at) / Fold change /veh ANKRD19P (11752326_a_at) / RFU OR2T12 /// OR2T33 /// OR2T8 (11738714_s_at) / Fold change /veh OR2T12 /// OR2T33 /// OR2T8 (11738714_s_at) / RFU VCAN (11748164_a_at) / Fold change /veh VCAN (11748164_a_at) / RFU JSRP1 (11732532_at) / Fold change /veh JSRP1 (11732532_at) / RFU KRTAP10-11 (11738290_x_at) / Fold change /veh KRTAP10-11 (11738290_x_at) / RFU MYO3A (11730013_a_at) / Fold change /veh MYO3A (11730013_a_at) / RFU EBF3 (11725865_a_at) / Fold change /veh EBF3 (11725865_a_at) / RFU CAMK2N1 (11719241_x_at) / Fold change /veh CAMK2N1 (11719241_x_at) / RFU C5orf56 (11738088_a_at) / Fold change /veh C5orf56 (11738088_a_at) / RFU OLFML3 (11715873_a_at) / Fold change /veh OLFML3 (11715873_a_at) / RFU LOC100653217 /// NTM (11731650_a_at) / Fold change /veh LOC100653217 /// NTM (11731650_a_at) / RFU MAPK11 (11762145_a_at) / Fold change /veh MAPK11 (11762145_a_at) / RFU FIZ1 (11724087_x_at) / Fold change /veh FIZ1 (11724087_x_at) / RFU OASL (11726364_x_at) / Fold change /veh OASL (11726364_x_at) / RFU SOX15 (11748057_x_at) / Fold change /veh SOX15 (11748057_x_at) / RFU CD79A (11719716_a_at) / Fold change /veh CD79A (11719716_a_at) / RFU HIST1H1D (11736915_at) / Fold change /veh HIST1H1D (11736915_at) / RFU CASKIN2 (11723855_a_at) / Fold change /veh CASKIN2 (11723855_a_at) / RFU LOC730098 (11760151_x_at) / Fold change /veh LOC730098 (11760151_x_at) / RFU OR4N2 (11742367_at) / Fold change /veh OR4N2 (11742367_at) / RFU PRRT2 (11749266_a_at) / Fold change /veh PRRT2 (11749266_a_at) / RFU SNX32 (11753110_a_at) / Fold change /veh SNX32 (11753110_a_at) / RFU CDHR5 (11726645_a_at) / Fold change /veh CDHR5 (11726645_a_at) / RFU RCAN1 (11760418_a_at) / Fold change /veh RCAN1 (11760418_a_at) / RFU FAM167A (11723789_a_at) / Fold change /veh FAM167A (11723789_a_at) / RFU FAM26E (11764081_at) / Fold change /veh FAM26E (11764081_at) / RFU ISYNA1 (11749810_s_at) / Fold change /veh ISYNA1 (11749810_s_at) / RFU ACY1 (11761880_at) / Fold change /veh ACY1 (11761880_at) / RFU 11764098_at / Fold change /veh 11764098_at / RFU SAMD14 (11745864_x_at) / Fold change /veh SAMD14 (11745864_x_at) / RFU NPB (11741838_a_at) / Fold change /veh NPB (11741838_a_at) / RFU TMPRSS6 (11731388_a_at) / Fold change /veh TMPRSS6 (11731388_a_at) / RFU KRTAP10-2 (11738614_at) / Fold change /veh KRTAP10-2 (11738614_at) / RFU ARHGAP8 /// PRR5-ARHGAP8 (11727945_x_at) / Fold change /veh ARHGAP8 /// PRR5-ARHGAP8 (11727945_x_at) / RFU KRTAP5-7 /// NADSYN1 (11734609_at) / Fold change /veh KRTAP5-7 /// NADSYN1 (11734609_at) / RFU RASL12 (11751679_a_at) / Fold change /veh RASL12 (11751679_a_at) / RFU CDKN2B (11736163_a_at) / Fold change /veh CDKN2B (11736163_a_at) / RFU PRF1 (11729649_at) / Fold change /veh PRF1 (11729649_at) / RFU, ZNF638 /// ZNF638-IT1 / Fold change vs veh, ZNF638 /// ZNF638-IT1 / RFU, PANK3 / Fold change vs veh, PANK3 / RFU, SH3YL1 / Fold change vs veh, SH3YL1 / RFU, ZEB2 / Fold change vs veh, ZEB2 / RFU, NRIP1 / Fold change vs veh, NRIP1 / RFU, PTTG1IP / Fold change vs veh, PTTG1IP / RFU, CAPN2 / Fold change vs veh, CAPN2 / RFU, MED14 / Fold change vs veh, MED14 / RFU, SNORA58 / Fold change vs veh, SNORA58 / RFU, C1orf63 / Fold change vs veh, C1orf63 / RFU, LRRFIP1 / Fold change vs veh, LRRFIP1 / RFU, NDUFAF7 / Fold change vs veh, NDUFAF7 / RFU, SLC12A2 / Fold change vs veh, SLC12A2 / RFU, IBTK / Fold change vs veh, IBTK / RFU, ESF1 / Fold change vs veh, ESF1 / Fold change vs veh, TMEM50B / RFU, TAOK1 / Fold change vs veh, TAOK1 / RFU, ACBD3 / Fold change vs veh, ACBD3 / RFU, TMA16 / Fold change vs veh, TMA16 / RFU, RWDD3 / Fold change vs veh, RWDD3 / RFU, BCAT1 / Fold change vs veh, BCAT1 / RFU, EDEM3 / Fold change vs veh, EDEM3 / RFU, TMEM33 / Fold change vs veh, TMEM33 / RFU, WDR75 / Fold change vs veh, WDR75 / RFU, AHCTF1 / Fold change vs veh, AHCTF1 / RFU, TFRC / Fold change vs veh, TFRC / RFU, ZDHHC17 / Fold change vs veh, ZDHHC17 / RFU, NOM1 / Fold change vs veh, NOM1 / RFU, ARL8B / Fold change vs veh, ARL8B / RFU, ZBTB11 / Fold change vs veh, ZBTB11 / RFU, TAMM41 / Fold change vs veh, TAMM41 / RFU, KIAA1704 /// LOC100996395 / Fold change vs veh, KIAA1704 /// LOC100996395 / RFU, ING1 / Fold change vs veh, ING1 / RFU, TRMT61B / Fold change vs veh, TRMT61B / RFU, FUBP3 / Fold change vs veh, FUBP3 / RFU, TP53 / Fold change vs veh, TP53 / RFU, TNKS2 / Fold change vs veh, TNKS2 / RFU, ZFP14 / Fold change vs veh, ZFP14 / RFU, ACTR2 / Fold change vs veh, ACTR2 / RFU, PPP3R1 / Fold change vs veh, PPP3R1 / RFU, PIK3R1 / Fold change vs veh, PIK3R1 / RFU, HNRNPA1 / Fold change vs veh, HNRNPA1 / RFU, RNF170 / Fold change vs veh, RNF170 / RFU, ZNF28 / Fold change vs veh, ZNF28 / RFU, RNGTT / Fold change vs veh, RNGTT / RFU, OGT / Fold change vs veh, OGT / RFU, BRD1 / Fold change vs veh, BRD1 / RFU, MARS / Fold change vs veh, MARS / RFU, ZNF655 / Fold change vs veh, ZNF655 / RFU, FAHD1 / Fold change vs veh, FAHD1 / RFU, BDP1 / Fold change vs veh, BDP1 / RFU, LRRCC1 / Fold change vs veh, LRRCC1 / RFU, ARID1A / Fold change vs veh, ARID1A / RFU, ZNF146 / Fold change vs veh, ZNF146 / RFU, ZNF330 / Fold change vs veh, ZNF330 / RFU, GPN3 / Fold change vs veh, GPN3 / RFU, C9orf123 / Fold change vs veh, C9orf123 / RFU, N4BP2L2 / Fold change vs veh, N4BP2L2 / RFU, ARFIP1 / Fold change vs veh, ARFIP1 / RFU, FAM179B / Fold change vs veh, FAM179B / RFU, BCL10 / Fold change vs veh, BCL10 / RFU, UHRF1BP1L / Fold change vs veh, UHRF1BP1L / RFU, BET1 / Fold change vs veh, BET1 / RFU, CNOT2 / Fold change vs veh, CNOT2 / RFU, ZNF268 / Fold change vs veh, ZNF268 / Fold change vs veh, ZNF507 / RFU, DGCR2 / Fold change vs veh, DGCR2 / RFU, WDSUB1 / Fold change vs veh, WDSUB1 / Fold change vs veh, HSP90B1 /// MIR3652 / RFU, ADSS / Fold change vs veh, ADSS / RFU, GK / Fold change vs veh, GK / RFU, ZNF148 / Fold change vs veh, ZNF148 / RFU, TAF9 / Fold change vs veh, TAF9 / RFU, SLC1A5 / Fold change vs veh, SLC1A5 / RFU, SLMO2 / Fold change vs veh, SLMO2 / RFU, ABCC4 / Fold change vs veh, ABCC4 / RFU, LOC101060439 /// RAP1B / Fold change vs veh, LOC101060439 /// RAP1B / RFU, RFX7 / Fold change vs veh, RFX7 / RFU, GTPBP10 / Fold change vs veh, GTPBP10 / RFU, CNEP1R1 / Fold change vs veh, CNEP1R1 / RFU, BIVM-ERCC5 /// ERCC5 / Fold change vs veh, BIVM-ERCC5 /// ERCC5 / RFU, ILF3 / Fold change vs veh, ILF3 / RFU 11762660_at / Fold change /veh 11762660_at / RFU VCAN (11757783_s_at) / Fold change /veh VCAN (11757783_s_at) / RFU DDX43 (11728927_at) / Fold change /veh DDX43 (11728927_at) / RFU KRT8 (11758188_x_at) / Fold change /veh KRT8 (11758188_x_at) / RFU NKD1 (11759106_at) / Fold change /veh NKD1 (11759106_at) / RFU SRD5A1 (11742802_a_at) / Fold change /veh SRD5A1 (11742802_a_at) / RFU TPSAB1 /// TPSB2 (11721975_s_at) / Fold change /veh TPSAB1 /// TPSB2 (11721975_s_at) / RFU GSTM3 (11746129_a_at) / Fold change /veh GSTM3 (11746129_a_at) / RFU IL23R (11737362_x_at) / Fold change /veh IL23R (11737362_x_at) / RFU TMEM51 (11727254_a_at) / Fold change /veh TMEM51 (11727254_a_at) / RFU PIWIL2 (11732686_x_at) / Fold change /veh PIWIL2 (11732686_x_at) / RFU ORM1 (11744905_x_at) / Fold change /veh ORM1 (11744905_x_at) / RFU CCDC152 (11743942_at) / Fold change /veh CCDC152 (11743942_at) / RFU ECM1 (11717891_a_at) / Fold change /veh ECM1 (11717891_a_at) / RFU IL23R (11748794_a_at) / Fold change /veh IL23R (11748794_a_at) / RFU TNFAIP8L3 (11732012_x_at) / Fold change /veh TNFAIP8L3 (11732012_x_at) / RFU MBOAT4 (11741988_at) / Fold change /veh MBOAT4 (11741988_at) / RFU 11764193_at / Fold change /veh 11764193_at / RFU TMEM53 (11763286_at) / Fold change /veh TMEM53 (11763286_at) / RFU MAGEB2 (11727129_at) / Fold change /veh MAGEB2 (11727129_at) / RFU TMEM200A (11744735_a_at) / Fold change /veh TMEM200A (11744735_a_at) / RFU CCDC152 (11751479_a_at) / Fold change /veh CCDC152 (11751479_a_at) / RFU FAM211A (11726209_a_at) / Fold change /veh FAM211A (11726209_a_at) / RFU RGS16 (11746705_a_at) / Fold change /veh RGS16 (11746705_a_at) / RFU VCAN (11755009_s_at) / Fold change /veh VCAN (11755009_s_at) / RFU RHOB (11743442_s_at) / Fold change /veh RHOB (11743442_s_at) / RFU RGS16 (11720943_a_at) / Fold change /veh RGS16 (11720943_a_at) / RFU RGS16 (11720944_at) / Fold change /veh RGS16 (11720944_at) / RFU, VPS4B / Fold change vs veh, VPS4B / RFU, CREB1 / Fold change vs veh, CREB1 / RFU, DNAJC13 / Fold change vs veh, DNAJC13 / RFU, GNAQ / Fold change vs veh, GNAQ / RFU, CDK5R1 / Fold change vs veh, CDK5R1 / RFU, ZRANB3 / Fold change vs veh, ZRANB3 / RFU, CUL4A / Fold change vs veh, CUL4A / RFU, CCNY / Fold change vs veh, CCNY / RFU, UFL1 / Fold change vs veh, UFL1 / RFU, COG3 / Fold change vs veh, COG3 / RFU, DIAPH2 / Fold change vs veh, DIAPH2 / RFU, SKA2 / Fold change vs veh, SKA2 / RFU, AFF3 / Fold change vs veh, AFF3 / RFU, LMF1 / Fold change vs veh, LMF1 / RFU, IPO11 / Fold change vs veh, IPO11 / RFU, DFFB / Fold change vs veh, DFFB / RFU, FOXP1 / Fold change vs veh, FOXP1 / RFU, CARD8 / Fold change vs veh, CARD8 / RFU, STRN3 / Fold change vs veh, STRN3 / RFU, ADK / Fold change vs veh, ADK / RFU, RASSF2 / Fold change vs veh, RASSF2 / RFU, WIPF1 / Fold change vs veh, WIPF1 / RFU, LARP1B / Fold change vs veh, LARP1B / RFU, RASA1 / Fold change vs veh, RASA1 / RFU, RB1 / Fold change vs veh, RB1 / RFU, PPFIA1 / Fold change vs veh, PPFIA1 / RFU, MAT2A / Fold change vs veh, MAT2A / RFU, CCT5 / Fold change vs veh, CCT5 / RFU, WDR92 / Fold change vs veh, WDR92 / RFU, CUX1 / Fold change vs veh, CUX1 / RFU, TTC7A / Fold change vs veh, TTC7A / RFU, TMEM135 / Fold change vs veh, TMEM135 / RFU, DEPTOR / Fold change vs veh, DEPTOR / RFU, CPM / Fold change vs veh, CPM / RFU, DNAJB6 / Fold change vs veh, DNAJB6 / RFU, CACNA2D3 / Fold change vs veh, CACNA2D3 / RFU, DTX4 / Fold change vs veh, DTX4 / RFU, TFCP2 / Fold change vs veh, TFCP2 / RFU, GMCL1 /// GMCL1P1 / Fold change vs veh, GMCL1 /// GMCL1P1 / RFU, AEBP2 / Fold change vs veh, AEBP2 / RFU, SNHG1 /// SNORD22 /// SNORD25 /// SNORD26 /// SNORD27 /// SNORD28 /// SNORD29 /// SNORD31 / Fold change vs veh, SNHG1 /// SNORD22 /// SNORD25 /// SNORD26 /// SNORD27 /// SNORD28 /// SNORD29 /// SNORD31 / Fold change (Aza/veh), C12orf56 (ProbeSet 11735607_a_at) / Fold change (ACY-1035/veh), C12orf56 (ProbeSet 11735607_a_at) / Fold change (Aza/veh), FGFR1OP (ProbeSet 11751329_s_at) / Fold change (ACY-1035/veh), FGFR1OP (ProbeSet 11751329_s_at) / Fold change (Aza/veh), VPS36 (ProbeSet 11739960_a_at) / Fold change (ACY-1035/veh), VPS36 (ProbeSet 11739960_a_at) / RFU SYPL1 (11715823_x_at) / Fold change /veh SYPL1 (11715823_x_at) / RFU IGFBP7 (11715501_s_at) / Fold change /veh IGFBP7 (11715501_s_at) / RFU REEP3 (11722064_at) / Fold change /veh REEP3 (11722064_at) / RFU IGLL1 (11728026_x_at) / Fold change /veh IGLL1 (11728026_x_at): dose or concentration left out as unconfirmed
# Conditions: MV-4-11 cells, 48 hours
smiles,measurement,value
Nc1ncn([C@@H]2O[C@H](CO)[C@@H](O)[C@H]2O)c(=O)n1 [azacitidine],Fold change /veh VCAN (11755009_s_at),1.97
